{"source": "ChEMBL document CHEMBL5729714", "about": "“Indazoles as hematopoietic progenitor kinase 1 (HPK1) inhibitors and methods using same” (2023)", "note": "pIC50: −log10 of the molar value."}
{"target": "Mitogen-activated protein kinase kinase kinase kinase 1 (Homo sapiens, UniProt Q92918)", "sequence (Q92918 whole entry)": "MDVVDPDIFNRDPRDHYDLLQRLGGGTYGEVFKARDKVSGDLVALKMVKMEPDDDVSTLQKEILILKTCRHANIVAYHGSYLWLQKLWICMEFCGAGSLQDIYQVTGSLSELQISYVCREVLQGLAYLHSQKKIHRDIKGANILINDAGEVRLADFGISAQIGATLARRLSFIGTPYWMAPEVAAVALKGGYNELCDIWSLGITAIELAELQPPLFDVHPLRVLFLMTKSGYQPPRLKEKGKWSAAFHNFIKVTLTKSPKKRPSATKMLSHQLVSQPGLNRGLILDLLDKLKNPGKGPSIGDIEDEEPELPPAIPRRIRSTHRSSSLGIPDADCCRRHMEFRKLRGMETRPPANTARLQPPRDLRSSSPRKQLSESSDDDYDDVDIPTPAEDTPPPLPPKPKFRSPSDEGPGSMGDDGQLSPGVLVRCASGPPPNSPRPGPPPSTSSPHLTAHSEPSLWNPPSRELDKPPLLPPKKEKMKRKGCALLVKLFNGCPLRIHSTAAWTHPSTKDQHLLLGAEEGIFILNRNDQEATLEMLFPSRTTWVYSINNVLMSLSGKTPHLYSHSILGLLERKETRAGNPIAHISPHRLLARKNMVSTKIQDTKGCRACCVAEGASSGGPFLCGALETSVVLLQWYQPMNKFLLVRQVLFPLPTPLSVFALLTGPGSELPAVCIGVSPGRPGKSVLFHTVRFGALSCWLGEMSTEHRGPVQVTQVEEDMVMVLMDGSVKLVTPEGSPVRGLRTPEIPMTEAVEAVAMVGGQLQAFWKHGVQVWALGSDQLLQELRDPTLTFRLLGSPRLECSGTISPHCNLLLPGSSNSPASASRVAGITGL", "assay": "ADP-Glo kinase assay: HPK1 kinase activity was measured by Promega's ADP-Glo™ kinase assay. In this assay, 5 ng of recombinant human HPK1 (signalchem) is incubated with 5 μL of compounds (0.5% DMSO), 5 μL of MBP (0.5 μg/μl) and 5 μL of ATP (25 μM) in buffer (40 mM Tris, 7.5; 20 mM MgCl2; 0.1 mg/ml BSA; 5 μM DTT). The assay was started by incubating the reaction mixture in a 96-well plate at 30′ C for 40 minutes. After the incubation, 25 uL ADP-Glo reagent was added and the reaction was incubated at room temperature for 40-min to stop the reaction and degrade residual ATP. The ADP product was then converted to ATP by adding 50 uL per well of detection reagent. Luminescence was detected after 30-min room temperature incubation with the Molecular device I3X plate reader. The IC50 values were calculated from a series of percent inhibition values determined at a range of inhibitor concentration using software routines as implemented in the GraphPad Prism 7 software and SigmaPlot13.0."}
{"smiles": "N#CC(NC=O)c1c(F)c(Cl)c(-c2ccc3nc(NC(=O)[C@@H]4C[C@@H]4F)cn3c2)c2cn[nH]c12", "note": "(some centres undefined)", "pIC50": "> 7.00"}
{"smiles": "COC(c1c(F)c(Cl)c(-c2ccc3nc(NC(=O)[C@@H]4C[C@@H]4F)cn3c2)c2cn[nH]c12)C(F)(F)F", "note": "(some centres undefined)", "pIC50": "> 7.00"}
{"smiles": "CCN(C)c1c(F)c(Cl)c(-c2ccc3nc(NC(=O)[C@@H]4C[C@@H]4F)sc3n2)c2cn[nH]c12", "pIC50": "> 7.00"}
{"smiles": "CC(F)c1c(F)c(Cl)c(-c2ccc3nc(NC(=O)[C@@H]4C[C@@H]4F)cn3c2)c2cn[nH]c12", "note": "(some centres undefined)", "pIC50": "> 7.00"}
{"smiles": "CSc1c(F)c(C)c(-c2ccn3nc(NC(=O)[C@@H]4C[C@H]4F)cc3c2)c2cn[nH]c12", "pIC50": "> 7.00"}
{"smiles": "C=Cc1c(F)cc2[nH]ncc2c1-c1ccc2nc(NC(=O)[C@@H]3C[C@@H]3F)sc2c1", "pIC50": "> 7.00"}
{"smiles": "CCN(C)c1c(F)c(C)c(-c2ccc3nc(NC(=O)[C@@H]4C[C@@H]4F)sc3c2)c2cn[nH]c12", "pIC50": "> 7.00"}
{"smiles": "CCN(C)c1c(F)c(C)c(-c2ccc3nc(NC(=O)[C@@H]4C[C@@H]4F)sc3n2)c2cn[nH]c12", "pIC50": "> 7.00"}
{"smiles": "CC(=O)Nc1c(F)c(C)c(-c2ccn3nc(NC(=O)[C@@H]4C[C@@H]4F)cc3c2)c2cn[nH]c12", "pIC50": "> 7.00"}
{"smiles": "CSc1c(F)c(C)c(-c2ccn3nc(NC(=O)[C@H]4C[C@H]4F)cc3c2)c2cn[nH]c12", "pIC50": "> 7.00"}
{"smiles": "CC(Nc1c(F)c(Cl)c(-c2ccc3nc(NC(=O)[C@@H]4C[C@@H]4F)cn3c2)c2cn[nH]c12)C(=O)N(C)C", "note": "(some centres undefined)", "pIC50": "> 7.00"}
{"smiles": "CCc1c(F)c(SC(C)C#N)c2[nH]ncc2c1-c1ccn2nc(NC(=O)[C@@H]3C[C@@H]3F)cc2c1", "note": "(some centres undefined)", "pIC50": "> 7.00"}
{"smiles": "O=C(Nc1nc2ccc(-c3c(Cl)c(F)c(N4CCCC4)c4[nH]ncc34)cc2s1)[C@@H]1C[C@@H]1F", "pIC50": "> 7.00"}
{"smiles": "O=C(Nc1cn2cc(-c3c(Cl)c(F)c(-c4cc[nH]c4)c4[nH]ncc34)ccc2n1)[C@@H]1C[C@@H]1F", "pIC50": "> 7.00"}
{"smiles": "CSc1c(F)c(C)c(-c2ccn3nc(NC(=O)C4CC4)cc3c2)c2cn[nH]c12", "pIC50": "> 7.00"}
{"smiles": "CC(O)c1c(F)c(Cl)c(-c2ccc3nc(NC(=O)[C@@H]4C[C@@H]4F)cn3c2)c2cn[nH]c12", "note": "(some centres undefined)", "pIC50": "> 7.00"}
{"smiles": "Cc1c(F)c(S(C)(=O)=O)c2[nH]ncc2c1-c1ccc2nc(NC(=O)[C@@H]3C[C@@H]3F)sc2n1", "pIC50": "< 6.00"}
{"smiles": "CC(=O)N(C)c1c(F)c(C)c(-c2ccc3nc(NC(=O)[C@@H]4C[C@@H]4F)sc3n2)c2cn[nH]c12", "pIC50": "> 7.00"}
{"smiles": "O=C(Nc1cn2cc(-c3c(Cl)c(F)c(C(O)C(F)(F)F)c4[nH]ncc34)ccc2n1)[C@@H]1C[C@@H]1F", "note": "(some centres undefined)", "pIC50": "> 7.00"}
{"smiles": "O=C(Nc1cn2cc(-c3c(Cl)c(F)c(NC4CCOC4)c4[nH]ncc34)ccc2n1)[C@@H]1C[C@@H]1F", "note": "(some centres undefined)", "pIC50": "> 7.00"}
{"smiles": "CC(c1c(F)c(Cl)c(-c2ccc3nc(NC(=O)[C@@H]4C[C@@H]4F)cn3c2)c2cn[nH]c12)n1ncnn1", "note": "(some centres undefined)", "pIC50": "> 7.00"}
{"smiles": "Cn1cccc1-c1c(F)c(Cl)c(-c2ccc3nc(NC(=O)[C@@H]4C[C@@H]4F)cn3c2)c2cn[nH]c12", "pIC50": "> 7.00"}
{"smiles": "CSCc1c(F)c(Cl)c(-c2ccc3nc(NC(=O)[C@@H]4C[C@@H]4F)cn3c2)c2cn[nH]c12", "pIC50": "> 7.00"}
{"smiles": "CC(=O)N(C)c1c(F)c(C)c(-c2ccc3nc(NC(=O)[C@@H]4C[C@@H]4F)cn3c2)c2cn[nH]c12", "pIC50": "> 7.00"}
{"smiles": "N#CCSc1c(F)c(Cl)c(-c2ccn3nc(NC(=O)[C@@H]4C[C@@H]4F)cc3c2)c2cn[nH]c12", "pIC50": "> 7.00"}
{"smiles": "O=C(Nc1cn2cc(-c3c(Cl)c(F)c(C(F)C(F)(F)F)c4[nH]ncc34)ccc2n1)[C@@H]1C[C@@H]1F", "note": "(some centres undefined)", "pIC50": "> 7.00"}
{"smiles": "Cn1ccnc1Sc1c(F)c(Cl)c(-c2ccc3nc(NC(=O)[C@@H]4C[C@@H]4F)cn3c2)c2cn[nH]c12", "pIC50": "> 7.00"}
{"smiles": "Cc1c(F)c([S+](C)[O-])c2[nH]ncc2c1-c1ccn2nc(NC(=O)[C@@H]3C[C@@H]3F)cc2c1", "note": "(some centres undefined)", "pIC50": "> 7.00"}
{"smiles": "CSc1c(F)c(SC)c2[nH]ncc2c1-c1ccc2nc(NC(=O)[C@@H]3C[C@@H]3F)sc2c1", "pIC50": "> 7.00"}
{"smiles": "O=C(Nc1cc2cc(-c3c(Cl)c(F)c(CO)c4[nH]ncc34)ccn2n1)[C@@H]1C[C@@H]1F", "pIC50": "> 7.00"}
{"smiles": "O=C(Nc1cn2cc(-c3c(Cl)c(F)c(CN4CCCC4)c4[nH]ncc34)ccc2n1)[C@@H]1C[C@@H]1F", "pIC50": "> 7.00"}
{"smiles": "O=C(Nc1cn2cc(-c3c(Cl)c(F)c(CO)c4[nH]ncc34)ccc2n1)[C@@H]1C[C@@H]1F", "pIC50": "> 7.00"}
{"smiles": "N#Cc1c(F)c(Cl)c(-c2ccc3nc(NC(=O)[C@@H]4C[C@@H]4F)sc3c2)c2cn[nH]c12", "pIC50": "> 7.00"}
{"smiles": "Cn1ccc(-c2c(F)c(Cl)c(-c3ccc4nc(NC(=O)[C@@H]5C[C@@H]5F)cn4c3)c3cn[nH]c23)c1", "pIC50": "> 7.00"}
{"smiles": "O=C(Nc1cn2cc(-c3c(Cl)c(F)c(NC4=NCCN4)c4[nH]ncc34)ccc2n1)[C@@H]1C[C@@H]1F", "pIC50": "> 7.00"}
{"smiles": "O=C(Nc1cn2cc(-c3c(Br)c(F)cc4[nH]ncc34)ccc2n1)[C@@H]1C[C@@H]1F", "pIC50": "> 7.00"}
{"smiles": "CCOC(c1c(F)c(Cl)c(-c2ccc3nc(NC(=O)[C@@H]4C[C@@H]4F)cn3c2)c2cn[nH]c12)C(F)(F)F", "note": "(some centres undefined)", "pIC50": "> 7.00"}
{"smiles": "O=C(Nc1cc2cc(-c3c(Cl)c(F)c(C(O)C(F)(F)F)c4[nH]ncc34)ccn2n1)[C@@H]1C[C@@H]1F", "note": "(some centres undefined)", "pIC50": "> 7.00"}
{"smiles": "CNC(=O)CSc1c(F)c(Cl)c(-c2ccc3nc(NC(=O)[C@@H]4C[C@@H]4F)sc3c2)c2cn[nH]c12", "pIC50": "> 7.00"}
{"smiles": "CSc1c(F)c(C)c(-c2ccc3nc(NC(=O)[C@@H]4C[C@@H]4F)sc3n2)c2cn[nH]c12", "pIC50": "> 7.00"}
{"smiles": "C[S+]([O-])Cc1c(F)c(Cl)c(-c2ccc3nc(NC(=O)[C@@H]4C[C@@H]4F)cn3c2)c2cn[nH]c12", "note": "(some centres undefined)", "pIC50": "> 7.00"}
{"smiles": "CCN(C)c1c(F)c(C)c(-c2ccc3nc(NC(=O)[C@@H]4C[C@@H]4F)cn3c2)c2cn[nH]c12", "pIC50": "> 7.00"}
{"smiles": "CSC(C)c1c(F)c(Cl)c(-c2ccc3nc(NC(=O)[C@@H]4C[C@@H]4F)cn3c2)c2cn[nH]c12", "note": "(some centres undefined)", "pIC50": "> 7.00"}
{"smiles": "CC(=O)N(C)c1c(F)c(C)c(-c2ccn3nc(NC(=O)[C@@H]4C[C@@H]4F)cc3c2)c2cn[nH]c12", "pIC50": "> 7.00"}
{"smiles": "O=C(Nc1cc2cc(-c3c(C(F)(F)F)c(F)cc4[nH]ncc34)ccn2n1)[C@@H]1C[C@@H]1F", "pIC50": "> 7.00"}
{"smiles": "CS(=O)(=O)Cc1c(F)c(Cl)c(-c2ccc3nc(NC(=O)[C@@H]4C[C@@H]4F)cn3c2)c2cn[nH]c12", "pIC50": "> 7.00"}
{"smiles": "Cn1nccc1-c1c(F)c(Cl)c(-c2ccc3nc(NC(=O)[C@@H]4C[C@@H]4F)cn3c2)c2cn[nH]c12", "pIC50": "> 7.00"}
{"smiles": "CSc1c(F)c(C)c(-c2ccn3nc(NC(=O)[C@H]4C[C@@H]4F)cc3c2)c2cn[nH]c12", "pIC50": "> 7.00"}
{"smiles": "COC(C)c1c(F)c(Cl)c(-c2ccc3nc(NC(=O)[C@@H]4C[C@@H]4F)cn3c2)c2cn[nH]c12", "note": "(some centres undefined)", "pIC50": "> 7.00"}
